Experimental data taken from patent US6380156B1, “Total synthesis of the amino hip analogue of didemnin A” (The Board of Trustees of the University of Illnois, priority 1996, dated 2002).
Numbered stars: 1 amine (or outer) side, 2 acyl side, 3 side chain; on linkers, the order of the positions; unused ones are H or OH. Bridge positions count the residues as written; N and C are the ends. Square brackets hold non-standard residues; d marks the D form. Peptide text beside a SMILES is read from it. * marks the point of attachment. X1 = CC[C@H](C)[C@@H](N[*:1])[C@@H](O)CC(=O)[*:2]; X2 = CC(C)[C@H](N[*:1])C(=O)[C@H](C)C(=O)[*:2]; NMeY = CN[C@@H](Cc1ccc(O)cc1)C(=O)O; dNMeL = CN[C@H](CC(C)C)C(=O)O; Cbz = O=C(OCc1ccccc1)*

How the values were obtained:
Nb2 node lymphoma cells = details: cited from earlier work
DNA and RNA viruses = details: cited from earlier work
[1] = in vitro; cited from earlier work
HSV = assay: Antiviral activity, HSV/CV-1; format: cell-based; set-up: key: +++ complete inhibition; ++ strong inhibition; + moderate inhibition; − no inhibition
CV-1 = assay: Cytotoxicity in the HSV/CV-1 antiviral test; details: scale 0-least toxic to 16 (toxic)
[2] = target: elongation factor 1α (EF-1α) (Homo sapiens, UniProt P68104); details: GTP-dependent; cited from earlier work
Sequence of elongation factor 1α (EF-1α) (P68104 whole entry): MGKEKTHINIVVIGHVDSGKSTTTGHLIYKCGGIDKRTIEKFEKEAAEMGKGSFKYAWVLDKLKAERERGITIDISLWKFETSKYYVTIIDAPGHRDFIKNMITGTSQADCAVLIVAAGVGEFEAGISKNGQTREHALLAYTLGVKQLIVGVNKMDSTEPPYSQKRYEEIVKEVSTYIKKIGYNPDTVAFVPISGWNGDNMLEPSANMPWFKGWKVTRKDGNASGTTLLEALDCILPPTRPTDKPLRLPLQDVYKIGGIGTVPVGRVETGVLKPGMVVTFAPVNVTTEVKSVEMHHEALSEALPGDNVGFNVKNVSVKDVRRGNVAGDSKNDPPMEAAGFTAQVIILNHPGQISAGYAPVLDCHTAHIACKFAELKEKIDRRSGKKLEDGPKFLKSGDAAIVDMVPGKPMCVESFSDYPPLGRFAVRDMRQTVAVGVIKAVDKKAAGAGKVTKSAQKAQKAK

Compound	binding to a site on Nb2 node lymphoma cells (Nb2 node lymphoma cells)	antiviral activity against DNA and RNA viruses (DNA and RNA viruses)	cytotoxicity relative to didemnin A [1]	HSV/CV-1 Activity (antiviral) (HSV; 10 ng/mL)	HSV/CV-1 Activity (antiviral) (HSV; 20 ng/mL)	HSV/CV-1 Activity (antiviral) (HSV; 50 ng/mL)	HSV/CV-1 Activity (antiviral) (HSV; 100 ng/mL)	HSV/CV-1 Cytotoxicity (CV-1; 10 ng/mL)	HSV/CV-1 Cytotoxicity (CV-1; 20 ng/mL)	HSV/CV-1 Cytotoxicity (CV-1; 50 ng/mL)	HSV/CV-1 Cytotoxicity (CV-1; 100 ng/mL)	binding to elongation factor 1α (EF-1α) [2]
Didemnin B	binds to a site on Nb2 node lymphoma cells	exhibit antiviral activity	approximately twenty times more cytotoxic than didemnin A									
CC[C@H](C)[C@H]1NC(=O)[C@@H](NC(=O)[C@@H](CC(C)C)N(C)C(=O)OCc2ccccc2)[C@@H](C)OC(=O)[C@H](Cc2ccc(OC)cc2)N(C)C(=O)[C@@H]2CCCN2C(=O)[C@H](CC(C)C)NC(=O)[C@@H](C)C(=O)[C@H](C(C)C)NC(=O)C[C@@H]1O [Cbz-[Aip^3]-Didemnin A] (Cbz-[dNMeL]T[X1][X2]LP[NMeY](Me); ester 2-C)				−	+	+	+	0	0	8	10	
Didemnin A [Didemnin A (1)]		exhibit antiviral activity		−	+	+	+	0	0	0	0	binds elongation factor 1α (EF-1α) in a GTP-dependent manner
